# Laboratory results as given in patent US11267815B2, “Class of amino-substituted nitrogen-containing fused ring compounds, preparation method therefor, and use thereof” (SHANGHAI RINGENE BIOPHARMA CO., LTD., priority 2017, dated 2022).
# What was measured:
# [1] = Pharmacokinetics in rats or mice after intragastric and intravenous administration; assay type: in vivo, SD rats or BALB/c mice; conditions: iv 3 mg/kg, intragastric 10 mg/kg
# Protocol: (3) LC/MS/MS method was used to measure the drug concentration in plasma at different time points after the embodiment compounds were administered to the rats or mice by intragastric administration and intravenous injection respectively, so as to study the pharmacokinetic behavior of the compounds of the present disclosure in rats or mice and evaluate the pharmacokinetic characteristics thereof. […]
# [2] = biological target: FGFR4 (Homo sapiens (Human), UniProt P22455); experiment: Inhibitory activity on kinase FGFR4 (Caliper mobility shift); assay type: biochemical; conditions: read-out: FGFR4 IC50
# Protocol: (§1) (1). Preparation of 1×Kinase buffer; (2) Preparation of the gradient concentrations of the compounds: the concentration of the compounds to be tested started from 10 μM, which was 3-fold diluted to prepare 10 dilutions, and then tested in duplicated wells. The compounds were 100-fold serially diluted into 10 dilutions with different final concentrations in 96-well plates, each of which was further diluted with 1×Kinase buffer to prepare an intermediate dilution having a concentration of 5 times the final concentration; (3) adding 5 μL of each of the prepared compound solution into the compound wells of 384-well plates, and each concentration set single well; adding 5 μL of 5% DMSO into negative control wells and positive control wells respectively; (4) preparing a kinase solution having a concentration of 2.5 times the final concentration with 1×kinase buffer; (5) adding 10 μL of kinase solution at a concentration of 2.5 times the final concentration into the compound wells and the positive control wells respectively; and adding 10 μL of 1×Kinase buffer into the negative control wells; (6) centrifuging at 1000 rpm for 30 seconds, and incubating at room temperature for 10 minutes after shaking and mixing evenly; (7) preparing a mixed solution of ATP and Kinase substrate 22 having a concentration of 2.5 times the final concentration with 1×Kinase Buffer; (8) adding 10 μL of the mixed solution of ATP and substrate at a concentration of 2.5 times the final concentration to initiate the reaction; (9) Centrifuging the 384-well plates at 1000 rpm for 30 seconds, and incubating at 28° C. for corresponding time respectively after shaking and mixing; (10) adding 30 μL of stop detection solution to stop the kinase reaction, centrifuging at 1000 rpm for 30 seconds, and shaking and mixing the mixture evenly; (11) reading the conversion rate by Caliper Ezreader II. The dose-effect curve was fitted by the log (inhibitor) vs. response-variable slope of GraphPad Prism 5 with the log value of concentration as the X axis and the percentage inhibition rate as the Y axis, then the IC50 value of each compound on the enzyme activity was obtained.
# [3] = tested on: xenograft tumors; experiment: Xenograft tumor growth in nude mice; assay type: in vivo; conditions: oral, daily for three weeks, lower dose (even less than 20 mg/kg)
# Protocol: 1. The tumor tissue in vigorous growth period was cut into about 1.5 mm^3, and subcutaneously inoculated into the right armpit of nude mice under sterile condition. The diameter of the subcutaneous transplanted tumors in nude mice was measured with vernier caliper, and the animals were randomly divided into groups when the average volume of the tumor reached about 130 mm^3. The embodiment compounds (prepared to the desired concentration with water for injection containing 1% Tween 80 for later use) were orally administered at a predetermined dose every day for three weeks, while a same amount of menstruum was administered in the menstruum control group. During the whole experiment, the diameter of the xenograft tumor was measured twice a week and the weight of the mice was weighed at the same time. The tumor volume (TV) was calculated by the formula: TV=½×a×b^2, where a and b represent length and width respectively. According to the measured results, the relative tumor volume (RTV) was calculated by the formula: RTV=Vt/V0, where V0 was the tumor volume measured when the mice were divided into cages for administration (i.e., d0) and Vt was the tumor volume at each measurement. […]
# [4] = ADME tests: liver microsome metabolic stability and direct inhibition test; assay type: in vitro ADME; conditions: metabolic stability, direct inhibition test
# Protocol: (1) Metabolic stability test: 150 μL system of liver microsome (final concentration 0.5 mg/mL) was used for metabolic stability incubation, the system contained NADPH (final concentration 1 mM), 1 μM test compound and positive control Midazolam or negative control Atenolol, then the reaction was terminated with Tinidazole-containing acetonitrile at 0 min, 5 min, 10 min and 30 min respectively, and the mixtures were vortexed for 10 minutes and centrifuged for 10 minutes at 15000 rmp, 50 μL of the supernatants were added into 96-well plate for injection. The metabolic stability of the compounds was calculated by measuring the relative reduction of the original drug.
# (2) Direct inhibition test (DI test): Direct inhibition incubation was carried out with 100 μL system of human liver microsome (final concentration 0.2 mg/mL), the system containing NADPH (final concentration 1 mM), 10 μM compound, positive inhibitor cocktail (Ketoconazole 10 μM, Quinidine 10 μM, Sulfaphenazolum 100 μM, α-Naphthoflavone 10 μM, Tranylcypromine 1000 μM), negative control (BPS containing 0.1% DMSO) and mixed probe substrates (Midazolam 10 μM, Testosterone 100 μM, Dextromethorphan […], Diclofenac 20 μM, Phenacetin 100 μM, Mephenytoin 100 μM) was incubated for 20 minutes and then the reaction was terminated. The relative activity of enzymes was calculated by measuring the relative production of metabolites.
# [5] = tested on: Hep3B cells; experiment: Hep3B cell proliferation (CellTiter-Glo, 72 hours); assay type: cell-based; conditions: read-out: Hep3B IC50
# Protocol: 1. Test method: inoculating Hep3B cells (ATCC) in logarithmic growth phase at an appropriate density in a 96-well culture plate, with 100 μL per well. After overnight culture, different concentrations of compounds were added to stay for 72 hours, and menstruum control group (negative control) was set, and the incubation was performed under the condition of 5% CO2 at 37° C. Adding 10 mM compound stock solution to the cells, after the cells were incubated with the compounds for 72 hours, the effects of the compounds on cell proliferation were determined by CellTiter-Glo (Promega) method. 30 μL CTG reagent was added to each well and the resulting mixtures were placed in a 37° C. incubator for 2-4 hours. Then the plate was read by a full-wavelength microplate enzyme reader Envision at a […].
# The inhibition rates (%) of the compounds on tumor cell growth were calculated by the following formula: inhibition rate (%)=(OD negative control well−OD administration well)/OD negative control well×100%. IC50 values were obtained by four parameters regression using Graphpad Prism 5 software.
# [6] = tested on: EGFR, VEGFR, PDGFR, FGFR, RET, MET, Src, Lyn, Syk, MEK, CDK, RA, ROS; experiment: Inhibitory activities on different kinases (selectivity); assay type: biochemical; conditions: versus different kinases
# Protocol: The inhibitory activities of the compounds of the present disclosure on different kinases such as EGFR, VEGFR, PDGFR, FGFR, RET, MET, Src, Lyn, Syk, MEK, CDK, RA, ROS, etc., were also determined.
# [7] = tested on: various tumor cells (HuH-7, SNU-16, KG1, UM-UC-14, RT-112 etc.); experiment: Proliferation inhibitory activity on various tumor cells (SRB or CCK8); assay type: cell-based; conditions: SRB or CCK8 method; read-out: proliferation inhibitory activities on various tumor cells
# [8] = biological target: FGFR1 (Homo sapiens (Human), UniProt P11362); experiment: Inhibitory activity on kinase FGFR1 (Caliper mobility shift); assay type: biochemical; conditions: read-out: FGFR1 IC50
# Protocol: as §1
# FGFR4, sequence (P22455 22-802): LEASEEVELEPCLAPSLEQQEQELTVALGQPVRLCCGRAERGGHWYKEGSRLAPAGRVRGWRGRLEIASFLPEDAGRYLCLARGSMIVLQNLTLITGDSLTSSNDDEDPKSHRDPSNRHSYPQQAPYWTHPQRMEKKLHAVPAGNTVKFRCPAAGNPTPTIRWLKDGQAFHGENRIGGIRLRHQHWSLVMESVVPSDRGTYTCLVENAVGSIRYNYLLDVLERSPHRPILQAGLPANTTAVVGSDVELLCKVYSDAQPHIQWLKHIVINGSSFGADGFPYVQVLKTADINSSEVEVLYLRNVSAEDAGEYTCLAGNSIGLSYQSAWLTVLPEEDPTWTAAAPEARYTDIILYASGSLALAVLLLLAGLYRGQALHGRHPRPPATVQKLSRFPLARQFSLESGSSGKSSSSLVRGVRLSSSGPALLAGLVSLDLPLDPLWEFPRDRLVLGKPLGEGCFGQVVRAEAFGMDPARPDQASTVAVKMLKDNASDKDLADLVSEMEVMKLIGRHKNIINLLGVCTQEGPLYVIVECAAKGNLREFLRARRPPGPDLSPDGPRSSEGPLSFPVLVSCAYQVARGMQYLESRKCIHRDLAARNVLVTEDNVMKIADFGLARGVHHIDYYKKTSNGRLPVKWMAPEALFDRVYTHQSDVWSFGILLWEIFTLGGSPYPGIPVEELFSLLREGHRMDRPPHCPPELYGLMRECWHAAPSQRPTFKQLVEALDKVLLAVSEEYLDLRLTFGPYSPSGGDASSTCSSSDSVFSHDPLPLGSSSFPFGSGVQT
# FGFR1, sequence (P11362 22-822): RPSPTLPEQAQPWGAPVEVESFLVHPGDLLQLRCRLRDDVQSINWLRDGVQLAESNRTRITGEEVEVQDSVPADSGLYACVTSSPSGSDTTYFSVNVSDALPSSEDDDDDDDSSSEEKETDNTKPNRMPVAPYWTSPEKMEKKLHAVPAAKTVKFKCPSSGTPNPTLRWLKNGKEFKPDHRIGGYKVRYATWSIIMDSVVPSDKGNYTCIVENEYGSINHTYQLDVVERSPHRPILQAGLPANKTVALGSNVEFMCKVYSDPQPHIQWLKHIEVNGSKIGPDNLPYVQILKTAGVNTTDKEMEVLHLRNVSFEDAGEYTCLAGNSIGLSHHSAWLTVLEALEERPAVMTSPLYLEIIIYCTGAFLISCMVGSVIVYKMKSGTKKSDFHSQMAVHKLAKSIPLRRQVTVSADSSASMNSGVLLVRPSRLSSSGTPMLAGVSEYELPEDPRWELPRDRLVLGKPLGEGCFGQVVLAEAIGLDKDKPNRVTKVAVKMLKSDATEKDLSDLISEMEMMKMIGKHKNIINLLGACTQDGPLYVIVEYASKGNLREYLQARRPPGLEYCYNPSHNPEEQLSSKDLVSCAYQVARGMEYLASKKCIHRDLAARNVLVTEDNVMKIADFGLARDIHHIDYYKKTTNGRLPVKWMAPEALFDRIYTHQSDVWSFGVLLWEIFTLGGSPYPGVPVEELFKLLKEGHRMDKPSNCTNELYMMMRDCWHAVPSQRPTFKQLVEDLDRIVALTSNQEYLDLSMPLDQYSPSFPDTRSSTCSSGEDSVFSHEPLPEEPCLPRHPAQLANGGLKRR
smiles,measurement,setting,value
"C=CC(=O)Nc1ccc(-c2cn3c(n2)c(-c2c(Cl)c(OC)cc(OC)c2Cl)cc2cnc(NC)nc23)cc1 [Embodiment 17, N-(4-(6-(2,6-dichloro-3,5-phenyldimethoxyphenyl)-2-(methylamine)imidazo[1′,2′:1,6]pyrido[2,3-d]pyrimidin-8-yl)phenyl)acrylamide]",absorption and metabolism properties in rats and mice,[1],good absorption and metabolism properties in rats and mice
same,IC50,[2],> 200 nM
same,anti-tumor rate,[3],more than 80%
same,ADME properties,[4],better ADME properties
same,IC50,[5],20 to 200 nM
same,kinase selectivity,[6],greater than 100 times
same,IC50,[7],< 100 nM
same,IC50,[8],< 20 nM
